These molecules were tested on WEHI-164 (assay: Antiproliferative activity against mouse WEHI164 cells assessed as cell viability after 96 hrs by MTT assay). Conditions: WEHI-164, 96 h.
Type: functional, cell-based

CC(C)CCCC(CCCC(C)CCC[C@H](C)COS(=O)(=O)[O-])COS(=O)(=O)[O-].[Na+].[Na+] (stereo not given in full) and CC(C)CCCC(CCCC(C)CCCC(C)CCOS(=O)(=O)[O-])COS(=O)(=O)[O-].[Na+].[Na+] (stereo not given) are within 1.5-fold of each other in IC50: 230 µg/mL for the first, 300 µg/mL for the second.

CCCCCCCCCCCCCCCCCOS(=O)(=O)[O-].[Na+] [SODIUM HEPTADECYL SULFATE] and CCCCCCCCCCCCCCCCCCOS(=O)(=O)[O-].[Na+] [SODIUM OCTADECYL SULFATE] are within 1.5-fold of each other in IC50: 400 µg/mL for the first, 410 µg/mL for the second.

In the case of CCCCCCOS(=O)(=O)[O-].[Na+] [SODIUM HEXYL SULFATE], the IC50 is reported as 150 µg/mL.

From ChEMBL document CHEMBL1155710, “New bioactive sulfated metabolites from the Mediterranean tunicate Sidnyum turbinatum” (J Nat Prod, 2001)
